The test system of the test is d(AAAATTTT)2 (DNA, duplex) AAAATTTT
Description: X-ray crystallography (2.1 Å). The following applies: 8 mM MnCl2; 40 mM sodium cacodylate pH 6.5, 0.5 mM spermine, 5% MPD, 15 °C; 0.25 mM duplex, 0.75 mM CD27.

For the compound `c1cc(Nc2ccc(NC3=NCCN3)cc2)ccc1NC1=NCCN1`, the binding result was “yes”.

The values above are taken from paper PMC4051503 (2014).
